Measurements from patent US20060009478A1, “Methods for the treatment of back pain” (priority 2003, published 2006).

Test system: patients with moderate to severe chronic low back pain
Assay: Pain intensity (daily diary, 11-point numerical scale), low back pain study with titration and 12-week fixed-dose period
Type: in vivo, human
Details: for Pain intensity, change from baseline, MEAN (SD) / Pain intensity, percent change from baseline, MEAN (SD) / Pain intensity, actual value, MEAN (SD): LOCF imputation, average of last three days of dosing week; for Pain intensity, change from baseline, MEAN (SD) / Pain intensity, percent change from baseline, MEAN (SD) / Pain intensity, change from baseline, MAXIMUM / Pain intensity, change from baseline, MEDIAN / Pain intensity, change from baseline, MINIMUM / Pain intensity, percent change from baseline, MAXIMUM / Pain intensity, percent change from baseline, MEDIAN / Pain intensity, percent change from baseline, MINIMUM / Pain intensity, actual value, MEAN (SD) / Pain intensity, actual value, MAXIMUM / Pain intensity, actual value, MEDIAN / Pain intensity, actual value, MINIMUM: ITT population
Experimental: A multicenter, randomized, double-blind, active- and placebo-controlled study was designed and conducted.
In addition, adverse events and opioid-related adverse events were to be recorded in the daily diary.
For the pain intensity (PI) scale assessment, the patient was prompted with the question “How would you rate your overall pain intensity at this time?” and the PI score was recorded in the clinic at the Screening and Baseline Visits. Pain intensity was also assessed by prompting the patient with the questions “How would you rate your overall pain intensity during the past 24 hours?” and a daily PI diary score was recorded at bedtime. For both Pain Intensity prompts, the response was scored on an 11-point numerical scale (0=no pain and 10=severe pain).
The baseline average daily pain intensity score for each patient was calculated as the average of the daily bedtime pain intensity scores recorded during the 3 days immediately prior to baseline/start of titration period visit. The post-baseline average daily pain intensity scores were calculated as the average of the daily bedtime pain intensity scores recorded during the last 3 days of dosing prior to each visit. Missing data was imputed using the last-observation-carried-forward (LOCF) approach for efficacy variables in the fixed-dose period. If the first visit in the fixed-dose period was missing, the last value in the titration period was imputed forward. Unless indicated, all testing of statistical significance was two-sided, and a difference resulting in a p-value of equal to or less than 0.05 was considered statistically significant.
A primary efficacy endpoint was the percent change from baseline to the end of the fixed-dose period (Week 12) in average daily pain intensity. The percent change from baseline was calculated as [PI(baseline)−PI(fixed-dose)]/PI(baseline)*100. Data was summarized descriptively by treatment group. An analysis of covariance (ANCOVA) model including treatment and center as effects and baseline pain intensity as the covariate was used for global and pairwise inferences. Separate models were used to evaluate both the treatment by center and treatment by baseline pain intensity interaction terms.
A primary comparison of interest was oxycodone and naltrexone (e.g., BID or QID) versus oxycodone (e.g., QID). Secondary analyses included actual and percent change from baseline values of daily pain index, SF-12, and Oswestry disability index summarized descriptively by treatment group for both the titration and fixed-dose periods. Treatments were compared globally and in pairwise fashion at each visit in the fixed-dose period using an ANCOVA model that included treatment and center as effects and baseline pain intensity as the covariate. Separate models were used to evaluate both the treatment by center and treatment by baseline pain intensity interaction terms.

[1] = baseline to fixed dose week 1, LOCF
[2] = baseline to fixed dose week 2, LOCF
[3] = baseline to fixed dose week 3, LOCF
[4] = baseline to fixed dose week 4, LOCF
[5] = baseline to fixed dose week 5, LOCF
[6] = baseline to fixed dose week 6, LOCF

## COc1ccc2c3c1O[C@H]1C(=O)CC[C@@]4(O)[C@@H](C2)N(C)CC[C@]314 [OXY QID, oxycodone]
Baseline to fixed dose week 1
  Pain intensity, change from baseline, MEAN (SD): −3.6 (2.60)
  Pain intensity, percent change from baseline, MEAN (SD): −47.5 (33.12) percent
[1]
  Pain intensity, change from baseline, MAXIMUM: 3.0
  Pain intensity, change from baseline, MEDIAN: −3.7
  Pain intensity, change from baseline, MINIMUM: −9.7
  Pain intensity, percent change from baseline, MAXIMUM: 42.9%
  Pain intensity, percent change from baseline, MEDIAN: −52.4%
  Pain intensity, percent change from baseline, MINIMUM: −100.0%
Baseline to fixed dose week 2
  Pain intensity, change from baseline, MEAN (SD): −3.6 (2.59)
  Pain intensity, percent change from baseline, MEAN (SD): −47.1 (32.56) percent
[2]
  Pain intensity, change from baseline, MAXIMUM: 3.0
  Pain intensity, change from baseline, MEDIAN: −3.7
  Pain intensity, change from baseline, MINIMUM: −9.7
  Pain intensity, percent change from baseline, MAXIMUM: 42.9%
  Pain intensity, percent change from baseline, MEDIAN: −50.0%
  Pain intensity, percent change from baseline, MINIMUM: −100.0%
Baseline to fixed dose week 3
  Pain intensity, change from baseline, MEAN (SD): −3.7 (2.64)
  Pain intensity, percent change from baseline, MEAN (SD): −47.9 (33.29) percent
[3]
  Pain intensity, change from baseline, MAXIMUM: 3.0
  Pain intensity, change from baseline, MEDIAN: −4.0
  Pain intensity, change from baseline, MINIMUM: −9.7
  Pain intensity, percent change from baseline, MAXIMUM: 42.9%
  Pain intensity, percent change from baseline, MEDIAN: −54.2%
  Pain intensity, percent change from baseline, MINIMUM: −100.0%
Baseline to fixed dose week 4
  Pain intensity, change from baseline, MEAN (SD): −3.6 (2.68)
  Pain intensity, percent change from baseline, MEAN (SD): −47.4 (33.84) percent
[4]
  Pain intensity, change from baseline, MAXIMUM: 3.0
  Pain intensity, change from baseline, MEDIAN: −4.0
  Pain intensity, change from baseline, MINIMUM: −9.7
  Pain intensity, percent change from baseline, MAXIMUM: 42.9%
  Pain intensity, percent change from baseline, MEDIAN: −53.3%
  Pain intensity, percent change from baseline, MINIMUM: −100.0%
Baseline to fixed dose week 5
  Pain intensity, change from baseline, MEAN (SD): −3.6 (2.72)
  Pain intensity, percent change from baseline, MEAN (SD): −47.4 (34.44) percent
[5]
  Pain intensity, change from baseline, MAXIMUM: 3.0
  Pain intensity, change from baseline, MEDIAN: −4.0
  Pain intensity, change from baseline, MINIMUM: −9.7
  Pain intensity, percent change from baseline, MAXIMUM: 42.9%
  Pain intensity, percent change from baseline, MEDIAN: −52.4%
  Pain intensity, percent change from baseline, MINIMUM: −100.0%
Baseline to fixed dose week 6
  Pain intensity, change from baseline, MEAN (SD): −3.6 (2.70)
[6]
  Pain intensity, change from baseline, MAXIMUM: 3.0
  Pain intensity, change from baseline, MEDIAN: −4.0
  Pain intensity, change from baseline, MINIMUM: −9.7
Fixed dose week 1
  Pain intensity, actual value, MEAN (SD): 3.9 (2.53)
Fixed dose week 1, LOCF
  Pain intensity, actual value, MAXIMUM: 10.0
  Pain intensity, actual value, MEDIAN: 3.7
  Pain intensity, actual value, MINIMUM: 0.0
Fixed dose week 2
  Pain intensity, actual value, MEAN (SD): 3.9 (2.47)
Fixed dose week 2, LOCF
  Pain intensity, actual value, MAXIMUM: 10.0
  Pain intensity, actual value, MEDIAN: 3.7
  Pain intensity, actual value, MINIMUM: 0.0
Fixed dose week 3
  Pain intensity, actual value, MEAN (SD): 3.9 (2.52)
Fixed dose week 3, LOCF
  Pain intensity, actual value, MAXIMUM: 10.0
  Pain intensity, actual value, MEDIAN: 3.3
  Pain intensity, actual value, MINIMUM: 0.0
Fixed dose week 4
  Pain intensity, actual value, MEAN (SD): 3.9 (2.55)
Fixed dose week 4, LOCF
  Pain intensity, actual value, MAXIMUM: 10.0
  Pain intensity, actual value, MEDIAN: 3.3
  Pain intensity, actual value, MINIMUM: 0.0
Fixed dose week 5
  Pain intensity, actual value, MEAN (SD): 3.9 (2.59)
Fixed dose week 5, LOCF
  Pain intensity, actual value, MAXIMUM: 10.0
  Pain intensity, actual value, MEDIAN: 3.3
  Pain intensity, actual value, MINIMUM: 0.0
Fixed dose week 6
  Pain intensity, actual value, MEAN (SD): 3.9 (2.58)
Fixed dose week 6, LOCF, ITT
  Pain intensity percent change from baseline to fixed dose week 6, maximum: 42.9%
  Pain intensity percent change from baseline to fixed dose week 6, mean (SD): −47.5 (34.20) %
  Pain intensity percent change from baseline to fixed dose week 6, median: −51.9%
  Pain intensity percent change from baseline to fixed dose week 6, minimum: −100.0%
Fixed dose week 6, LOCF
  Pain intensity, actual value, MAXIMUM: 10.0
  Pain intensity, actual value, MEDIAN: 3.3
  Pain intensity, actual value, MINIMUM: 0.0
